In patent US10874644B2, “Therapeutic approaches for treating Alzheimer disease and related disorders through a modulation of synapse function” (Pharnext, priority 2008, dated 2020):

B1: BDNF: Brain-derived neurotrophic factor, used as a positive (neuroprotective) control (protein, UniProt P23560 19-247, looked up)
Neurotrophic factor BDNF …: APMKEANIRGQGGLAYPGVRTHGTLESVNGPKAGSRGLTSLADTFEHVIEELLDEDQKVRPNEENNKDADLYTSRVMLSSQVPLEPPLLFLLEEYKNYLDAANMSMRVRRHSDPARRGELSVCDSISEWVTAADKKTAVDMSGGTVTVLEKVPVSKGQLKQYFYETKCNPMGYTKEGCRGIDKRHWNSQCRTTQSYVRALTMDSKKRIGWRFIRIDTSCVCTLTIKRGR

Key:
[1] = tested on: rat primary cortical neurons; test: Neurite outgrowth (neurites length) in beta-amyloid Aβ25-35 intoxicated rat primary cortical neuron culture; format: cell-based; conditions: Aβ25-35 20 μM for 2 days, drug added 1 hour before, Fig. 1A, 1B
From the text: Viable cells are counted in a Neubauer cytometer using the trypan blue exclusion test.

[2] = tested on: rat primary cortical neurons; test: LDH release in human Aβ1-42 toxicity on rat primary cortical cells; format: cell-based; conditions: 1 h pre-treatment, Aβ1-42 10 μM for 24 h
Method: Primary rat cortical neurons are cultured as described previously. […] The control medium was prepared in the same conditions.
Cortical neurons were intoxicated for 24 hours. Three separate cultures were performed per condition, 6 wells per condition.
This colorimetric assay for the quantification of cell toxicity is based on the measurement of lactate dehydrogenase (LDH) activity released from the cytosol of dying cells into the supernatant.

Row | Molecule | Prevention of Aβ25-35 intoxication (neurite outgrowth, neurites length) [1] | Prevention of Aβ1-42 intoxication, change of LDH release ([2]; Fig. 3B, 3C) [%] | Protection from Aβ1-42 amyloid injury (LDH release) ([2]; Fig. 3A)
1 | CC(=O)NCCCS(=O)(=O)O [Acamprosate] | significantly prevented | – | –
2 | NS(=O)(=O)Cc1noc2ccccc12 [Zonisamide] | significantly prevented | −75 | –
3 | B1 | efficiently prevented | – | significantly protected
